From patent US20030232797A1, “Novel derivatives of androstane and androstene with ascorbic acid and use thereof in treating or preventing various conditions, diseases, and disorders” (priority 2002, published 2003) come the findings set out here.

Counter-ions that a name gives are not always drawn.

On to `C[C@]12CC[C@H](OP(=O)(O)OC3=C(O)C(C(O)CO)OC3=O)CC1=CCC1C2CC[C@@]2(C)C1CC[C@@H]2OP(=O)(O)OC1=C(O)C(C(O)CO)OC1=O` (stereo partly drawn) [Diascorbyl diphosphate of androst-5ene-3β,17β-diol, tetrasodium salt], for which the Solubility in ethanol result (ethanol) is recorded as “Slightly soluble”. For the same compound, the Solubility in water (water, 50 mg sample, 50 microliter portions every 10 minutes, ultrasonic bath) was 10.6 %, w/w.
